Test results reported in patent US20260193264A1, “BENZOYPARAZINE PYRAZINES AND THEIR USES” (FOGHORN THERAPEUTICS INC., priority 2022, published 2026).

Key:
[1] = target: T1, HiBit-BRG1 fusion protein in stable HeLa cell line expressing HiBit-BRG1 and LgBit (Homo sapiens, UniProt P51532); assay: HiBiT-BRG1 cell-based degradation assay (Nano-Glo HiBiT, 24 h); conditions: HeLa HiBit-BRG1/LgBit cells; for DC50: read-out: BRMG1 HiBit Degradation IC50; for Dmax: top dose 30 μM, read-out: BRG1 HiBit Degradation Maximum (%)
T1 construct: expressed in transfected cells
Procedure: Procedure: A stable HeLa cell line expressing HiBiT-BRM was generated. On day 0, 5000 cells were seeded in 40 μL of media into each well of 384-well cell culture plates. […] Subsequently plates were incubated for 24 h in a standard tissue culture incubator and equilibrated at room temperature for 15 minutes. Nano-Glo HiBiT Lytic Detection System (Promega N3050) reagent was freshly prepared and 20 ul was added to each well. Upon addition of this LgBit-containing reagent, the HiBiT and LgBiT proteins associate to form the luminescent NanoBiT luciferase. The plates were shaken for 10 minutes at room temperature and the bioluminescence read using an EnVision plate reader (PerkinElmer). For measurement of BRG1 degradation, a stable HeLa cell line expressing HiBit-BRG1 and LgBit was generated. The same protocol as above was then followed. The degradation % was calculated using the following formula: % degradation=100%−100%×(Lumsample−LumLC)/(LumHC−LumLC). DMSO treated cells are employed as High Control (HC) and 2 μM of a known BRM/BRG1 degrader standard treated cells are employed as Low Control (LC).

[2] = target: T2, HiBiT-BRM fusion protein in stable HeLa cell line (Homo sapiens, UniProt P51531); assay: HiBiT-BRM cell-based degradation assay (Nano-Glo HiBiT Lytic Detection, 24 h); design: DC50: scale not given here; conditions: HeLa HiBiT-BRM cells; for DC50: read-out: BRM HiBit Degradation IC50; for BRM HiBit Degradation Maximum (%): top dose 30 μM
T2 construct: expressed in transfected cells
Procedure: Procedure: A stable HeLa cell line expressing HiBiT-BRM was generated. On day 0, 5000 cells were seeded in 40 μL of media into each well of 384-well cell culture plates. On day 1, cells were treated with 120 nL DMSO or 120 nL of 3-fold serially DMSO-diluted compounds (10 points in duplicate with 30 μM as final top dose). Subsequently plates were incubated for 24 h in a standard tissue culture incubator and equilibrated at room temperature for 15 minutes. Nano-Glo HiBiT Lytic Detection System (Promega N3050) reagent was freshly prepared and 20 ul was added to each well. Upon addition of this LgBit-containing reagent, the HiBiT and LgBiT proteins associate to form the luminescent NanoBiT luciferase. The plates were shaken for 10 minutes at room temperature and the bioluminescence read using an EnVision plate reader (PerkinElmer).
The degradation % was calculated using the following formula: % degradation=100%−100%×(Lumsample−LumLC)/(LumHC−LumLC). DMSO treated cells are employed as High Control (HC) and 2 μM of a known BRM/BRG1 degrader standard treated cells are employed as Low Control (LC).

T2 sequence (P51531 whole entry, the tested form may be a part): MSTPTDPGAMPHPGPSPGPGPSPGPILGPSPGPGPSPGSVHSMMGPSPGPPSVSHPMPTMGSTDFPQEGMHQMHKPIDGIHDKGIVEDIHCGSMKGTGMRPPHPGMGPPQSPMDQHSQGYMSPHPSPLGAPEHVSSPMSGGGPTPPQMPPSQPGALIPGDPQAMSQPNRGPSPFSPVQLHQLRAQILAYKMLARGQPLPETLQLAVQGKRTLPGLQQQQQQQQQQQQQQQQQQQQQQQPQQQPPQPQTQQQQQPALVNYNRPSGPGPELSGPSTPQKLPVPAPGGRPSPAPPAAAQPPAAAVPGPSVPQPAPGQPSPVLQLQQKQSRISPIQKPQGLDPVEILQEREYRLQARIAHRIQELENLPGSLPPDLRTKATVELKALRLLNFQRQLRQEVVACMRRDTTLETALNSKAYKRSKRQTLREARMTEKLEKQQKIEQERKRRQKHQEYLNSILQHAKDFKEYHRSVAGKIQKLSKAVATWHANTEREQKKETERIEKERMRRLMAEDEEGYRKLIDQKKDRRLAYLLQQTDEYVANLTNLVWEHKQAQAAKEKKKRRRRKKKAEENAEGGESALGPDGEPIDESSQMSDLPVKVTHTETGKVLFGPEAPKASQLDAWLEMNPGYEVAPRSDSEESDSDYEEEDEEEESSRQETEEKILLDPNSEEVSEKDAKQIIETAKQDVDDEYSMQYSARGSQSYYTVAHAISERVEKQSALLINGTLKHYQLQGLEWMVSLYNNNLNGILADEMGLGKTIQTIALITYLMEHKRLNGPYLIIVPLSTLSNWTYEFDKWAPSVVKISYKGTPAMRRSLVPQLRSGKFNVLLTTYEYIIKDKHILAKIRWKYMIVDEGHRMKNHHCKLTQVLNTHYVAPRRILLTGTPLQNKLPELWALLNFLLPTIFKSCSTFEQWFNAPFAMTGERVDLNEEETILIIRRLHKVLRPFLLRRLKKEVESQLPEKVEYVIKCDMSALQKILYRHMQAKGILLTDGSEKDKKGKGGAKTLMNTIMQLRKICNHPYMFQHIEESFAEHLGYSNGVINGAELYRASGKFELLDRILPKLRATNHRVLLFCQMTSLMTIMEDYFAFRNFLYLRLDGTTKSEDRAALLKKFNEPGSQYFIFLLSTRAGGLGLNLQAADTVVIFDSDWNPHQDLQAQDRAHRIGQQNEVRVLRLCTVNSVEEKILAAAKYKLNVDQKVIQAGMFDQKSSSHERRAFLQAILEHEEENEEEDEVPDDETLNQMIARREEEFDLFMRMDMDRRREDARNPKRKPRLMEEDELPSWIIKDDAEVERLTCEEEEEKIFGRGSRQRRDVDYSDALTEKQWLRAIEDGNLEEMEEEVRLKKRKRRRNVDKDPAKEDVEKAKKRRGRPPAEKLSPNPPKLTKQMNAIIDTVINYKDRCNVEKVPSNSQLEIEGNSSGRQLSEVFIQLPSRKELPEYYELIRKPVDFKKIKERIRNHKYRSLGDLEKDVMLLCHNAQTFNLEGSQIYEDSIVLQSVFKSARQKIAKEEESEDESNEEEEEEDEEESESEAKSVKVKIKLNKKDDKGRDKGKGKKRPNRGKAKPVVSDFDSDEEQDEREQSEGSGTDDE
T1 sequence (P51532 whole entry, the tested form may be a part): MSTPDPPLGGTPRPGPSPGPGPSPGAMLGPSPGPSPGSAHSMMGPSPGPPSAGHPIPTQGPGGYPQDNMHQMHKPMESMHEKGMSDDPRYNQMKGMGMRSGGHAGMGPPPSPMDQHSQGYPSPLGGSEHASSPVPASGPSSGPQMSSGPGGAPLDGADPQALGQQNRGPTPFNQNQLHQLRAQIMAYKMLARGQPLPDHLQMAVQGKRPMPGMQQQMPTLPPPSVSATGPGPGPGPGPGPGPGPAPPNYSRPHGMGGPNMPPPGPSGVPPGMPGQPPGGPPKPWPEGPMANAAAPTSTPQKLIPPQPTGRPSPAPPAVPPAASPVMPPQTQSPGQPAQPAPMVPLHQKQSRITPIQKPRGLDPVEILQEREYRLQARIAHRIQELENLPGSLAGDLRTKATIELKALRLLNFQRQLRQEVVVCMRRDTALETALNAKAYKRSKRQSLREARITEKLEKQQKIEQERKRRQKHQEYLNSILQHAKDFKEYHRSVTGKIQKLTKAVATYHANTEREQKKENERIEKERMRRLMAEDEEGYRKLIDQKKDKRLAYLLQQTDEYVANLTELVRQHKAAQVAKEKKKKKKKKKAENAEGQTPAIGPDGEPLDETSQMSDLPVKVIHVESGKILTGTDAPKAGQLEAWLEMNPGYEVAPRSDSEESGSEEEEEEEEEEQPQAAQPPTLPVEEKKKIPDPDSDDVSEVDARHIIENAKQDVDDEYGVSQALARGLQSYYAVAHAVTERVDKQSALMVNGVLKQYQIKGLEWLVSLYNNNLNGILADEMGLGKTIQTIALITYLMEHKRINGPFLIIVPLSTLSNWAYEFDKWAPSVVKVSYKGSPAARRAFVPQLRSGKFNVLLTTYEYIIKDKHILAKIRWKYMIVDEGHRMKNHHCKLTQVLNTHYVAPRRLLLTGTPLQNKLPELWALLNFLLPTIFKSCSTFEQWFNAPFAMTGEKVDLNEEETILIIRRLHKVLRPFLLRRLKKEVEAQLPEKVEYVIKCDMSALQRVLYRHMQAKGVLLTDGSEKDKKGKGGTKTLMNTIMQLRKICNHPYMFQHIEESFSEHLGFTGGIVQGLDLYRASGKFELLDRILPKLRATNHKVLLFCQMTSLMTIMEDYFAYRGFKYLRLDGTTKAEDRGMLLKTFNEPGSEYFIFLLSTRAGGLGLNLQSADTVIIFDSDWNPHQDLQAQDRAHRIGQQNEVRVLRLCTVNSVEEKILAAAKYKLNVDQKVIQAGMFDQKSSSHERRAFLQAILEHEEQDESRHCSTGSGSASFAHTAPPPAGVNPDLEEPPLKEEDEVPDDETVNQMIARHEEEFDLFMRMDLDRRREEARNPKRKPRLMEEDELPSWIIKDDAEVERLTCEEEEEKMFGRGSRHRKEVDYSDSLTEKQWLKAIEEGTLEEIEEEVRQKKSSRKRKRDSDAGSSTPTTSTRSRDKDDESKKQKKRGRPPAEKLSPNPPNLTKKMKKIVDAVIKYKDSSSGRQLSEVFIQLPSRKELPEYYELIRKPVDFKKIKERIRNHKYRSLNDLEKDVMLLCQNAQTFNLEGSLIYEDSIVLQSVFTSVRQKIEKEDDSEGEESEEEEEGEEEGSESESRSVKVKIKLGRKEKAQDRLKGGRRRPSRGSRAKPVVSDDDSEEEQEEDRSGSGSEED

SMILES	DC50 [1] [nM]	Dmax [1] [%]	DC50 [2] [nM]	BRM HiBit Degradation Maximum (%) [2]
Cc1ncsc1-c1ccc([C@H](C)NC(=O)[C@@H]2C[C@@H](O)CN2C(=O)C(c2cc(-c3cnc(N4CCC5(CC4)CC(c4ccc6cc(-c7ccccc7O)nnc6c4)C5)nc3)no2)C(C)C)cc1 (mixture of isomers) [Compound 65, (2S,4R)-4-hydroxy-1-(2-(3-(2-(2-(3-(2-hydroxyphenyl)cinnolin-7-yl)-7-azaspiro[3.5]nonan-7-yl)pyrimidin-5-yl)isoxazol-5-yl)-3-methylbutanoyl)-N-((S)-1-(4-(4-methylthiazol-5-yl)phenyl)ethyl)pyrrolidine-2-carboxamide]	> 10	> 75	< 10	A (“A” indicates maximum degradation ≥75%)
Cc1ncsc1-c1ccc([C@H](C)NC(=O)[C@@H]2C[C@@H](O)CN2C(=O)[C@@H](c2cc(N3CC4(CN(c5ccc6cc(-c7ccccc7O)nnc6c5)C4)C3)no2)C(C)C)cc1 (single isomer, unassigned) [Compound 51]			< 10	A (“A” indicates maximum degradation ≥75%)
Cc1ncsc1-c1ccc([C@H](C)NC(=O)[C@@H]2C[C@@H](O)CN2C(=O)[C@@H](c2cn(-c3ccc4nnc(-c5ccccc5O)cc4c3)nn2)C(C)C)cc1 (single isomer, unassigned) [Compound 161]	< 10	> 75	< 10	A (“A” indicates maximum degradation ≥75%)
Cc1ncsc1-c1ccc([C@H](C)NC(=O)[C@@H]2C[C@@H](O)CN2C(=O)[C@@H](c2cc(N3CCC4(CC3)CC(Oc3ccc5nnc(-c6ccccc6O)cc5c3)C4)no2)C(C)C)cc1 (single isomer, unassigned) [Compound 185]	< 10	> 75	< 10	A (“A” indicates maximum degradation ≥75%)
Cc1ncsc1-c1ccc([C@H](C)NC(=O)[C@@H]2C[C@@H](O)CN2C(=O)[C@@H](c2cc(N3CC4(CN(c5ccc6cc(-c7ccccc7O)nnc6c5)C4)C3)n(C)n2)C(C)C)cc1 (single isomer, unassigned) [Compound 194]		< 50	> 100	A (“A” indicates maximum degradation ≥75%)
Cc1ncsc1-c1ccc([C@H](C)NC(=O)[C@@H]2C[C@@H](O)CN2C(=O)[C@@H](c2cc(C3CC4(C3)CN(c3ccc5nnc(-c6ccccc6O)cc5c3)C4)no2)C(C)C)cc1 (single isomer, unassigned) [Compound 200]	< 10	> 75	< 10	A (“A” indicates maximum degradation ≥75%)
Cc1ncsc1-c1ccc([C@H](C)NC(=O)[C@@H]2C[C@@H](O)CN2C(=O)[C@H](C2CC2)n2cc(N3CC4(CN(c5ccc6cc(-c7ccccc7O)nnc6c5)C4)C3)nn2)cc1 (single isomer, unassigned) [Compound 210]			< 10	A (“A” indicates maximum degradation ≥75%)
Cc1ncsc1-c1ccc([C@H](C)NC(=O)[C@@H]2C[C@@H](O)CN2C(=O)C(c2cc(N3CCC4(CCC(c5ccc6nnc(-c7ccccc7O)cc6c5)CC4)CC3)no2)C(C)C)cc1 (stereo in doubt) [Compound 63, (2S,4R)-4-hydroxy-1-((S)-2-(3-(9-(3-(2-hydroxyphenyl)cinnolin-6-yl)-3-azaspiro[5.5]undecan-3-yl)isoxazol-5-yl)-3-methylbutanoyl)-N-((S)-1-(4-(4-methylthiazol-5-yl)phenyl)ethyl)pyrrolidine-2-carboxamide]	< 10	> 75	< 10	A (“A” indicates maximum degradation ≥75%)
Cc1ncsc1-c1ccc(C(C)NC(=O)C2CC(O)CN2C(=O)[C@@H](c2cc(N3CCN([C@@H]4CCN(Cc5cc6nnc(-c7ccccc7O)cc6cc5Cl)CC4(F)F)CC3)no2)C(C)C)cc1 (stereo in doubt) [Compound 215, (2R,4S)-1-((R)-2-(3-(4-((R)-1-((6-chloro-3-(2-hydroxyphenyl)cinnolin-7-yl)methyl)-3,3-difluoropiperidin-4-yl)piperazin-1-yl)isoxazol-5-yl)-3-methylbutanoyl)-4-hydroxy-N-((R)-1-(4-(4-methylthiazol-5-yl)phenyl)ethyl)pyrrolidine-2-carboxamide]		< 50	< 10	A (“A” indicates maximum degradation ≥75%)
Cc1ncsc1-c1ccc(C(C)NC(=O)C2CC(O)CN2C(=O)[C@@H](c2cc(N3CCN([C@H]4CCN(Cc5cc6nnc(-c7ccccc7O)cc6cc5Cl)CC4(F)F)CC3)no2)C(C)C)cc1 (stereo in doubt) [Compound 216, (2R,4S)-1-((R)-2-(3-(4-((S)-1-((6-chloro-3-(2-hydroxyphenyl)cinnolin-7-yl)methyl)-3,3-difluoropiperidin-4-yl)piperazin-1-yl)isoxazol-5-yl)-3-methylbutanoyl)-4-hydroxy-N-((R)-1-(4-(4-methylthiazol-5-yl)phenyl)ethyl)pyrrolidine-2-carboxamide]		< 50	> 10	A (“A” indicates maximum degradation ≥75%)
Cc1ncsc1-c1ccc([C@H](C)NC(=O)[C@@H]2C[C@@H](O)CN2C(=O)C(F)(c2cc(N3CC4(CN(c5ccc6cc(-c7ccccc7O)nnc6c5)C4)C3)no2)C(C)C)cc1 (stereo in doubt) [Compound 221, (2S,4R)-1-((R)-2-fluoro-2-(3-(6-(3-(2-hydroxyphenyl)cinnolin-7-yl)-2,6-diazaspiro[3.3]heptan-2-yl)isoxazol-5-yl)-3-methylbutanoyl)-4-hydroxy-N-((S)-1-(4-(4-methylthiazol-5-yl)phenyl)ethyl)pyrrolidine-2-carboxamide]	> 10	> 50	< 10	A (“A” indicates maximum degradation ≥75%)
Cc1ncsc1-c1ccc([C@H](C)NC(=O)[C@@H]2C[C@@H](O)CN2C(=O)C(C(C)C)n2cc(N3CC4(CN(c5ccc6cc(-c7ccccc7O)nnc6c5)C4)C3)cn2)cc1 (stereo in doubt) [Compound 257, (2S,4R)-4-hydroxy-1-((R)-2-(4-(6-(3-(2-hydroxyphenyl)cinnolin-7-yl)-2,6-diazaspiro[3.3]heptan-2-yl)-1H-pyrazol-1-yl)-3-methylbutanoyl)-N-((S)-1-(4-(4-methylthiazol-5-yl)phenyl)ethyl)pyrrolidine-2-carboxamide]		< 50	< 10	A (“A” indicates maximum degradation ≥75%)
Cc1ncsc1-c1ccc([C@H](C)NC(=O)[C@@H]2C[C@@H](O)CN2C(=O)[C@@H](c2cc(OCCN3CC(c4ccc5nnc(-c6ccccc6O)cc5c4)C3)no2)C(C)C)cc1 [Compound 1, (2S,4R)-4-hydroxy-1-[(2R)-2-[3-(2-{3-[3-(2-hydroxyphenyl)cinnolin-6-yl]azetidin-1-yl}ethoxy)-1,2-oxazol-5-yl]-3-methylbutanoyl]-N-[(1S)-1-[4-(4-methyl-1,3-thiazol-5-yl)phenyl]ethyl]pyrrolidine-2-carboxamide]		< 50	> 10	B (“B” indicates maximum degradation ≥50%)
Cc1ncsc1-c1ccc([C@H](C)NC(=O)[C@@H]2C[C@@H](O)CN2C(=O)[C@@H](c2cc(N3CCC(CN4CC(c5ccc6nnc(-c7ccccc7O)cc6c5)C4)CC3)no2)C(C)C)cc1 [Compound 2, (2S,4R)-4-hydroxy-1-((R)-2-(3-(4-((3-(3-(2-hydroxyphenyl)cinnolin-6-yl)azetidin-1-yl)methyl)piperidin-1-yl)isoxazol-5-yl)-3-methylbutanoyl)-N-((S)-1-(4-(4-methylthiazol-5-yl)phenyl)ethyl)pyrrolidine-2-carboxamide]		< 50	> 10	A (“A” indicates maximum degradation ≥75%)
